The term viability, T/C denotes the result in the treated group divided by that in the control group, in per cent. What is called IC50 is the concentration at which inhibition is half-maximal.

Consider 11 molecules from PubChem BioAssay AID2060501 (Molecular Pharmacology Branch, DTP, NCI, 2025).

The test system of this test is 282377-053-R-J1-PDC complex spheroids, viability. Briefly: Anticancer human tumor 282377-053-R-J1-PDC patient-derived colon adenocarcinoma cell line growth inhibition [GQUAD]. Particulars: for viability, T/C: stronger effect = lower value; for IC50: curve of compound. From the text:
DNA G-quadruplex Stabilizer Agents in Combinations in Complex Spheroids
A high-throughput screen of multi-cell type tumor spheroids was designed to identify active combinations of DNA G-quadruplex stabilizer agents and targeted small molecules. Complex spheroids include a stromal component modeled by human endothelial cells (HUVEC) and fibroblasts modeled by human mesenchymal stem cells (MSCs). The concentration ranges selected for each drug and investigational agent were based upon clinically achievable concentrations if the clinical Cmax of the agent was known.
Compounds. The drugs and investigational agents: pidnarulex (CX-5461; NSC782164), APTO-253 (NSC789042), BRACO-19 (NSC847499), peposertib (NSC802822), ceralasertib (NSC780249), elimusertib (NSC800525), camonsertib (NSC841442), AZD-1390 (NSC803789), olaparib (NSC753686), talazoparib (NSC767125), ART-558 (NSC835418), sotorasib (NSC818433), MRTX-1133 (NSC836407), SN-38 (NSC673596), topotecan (NSC609699), etoposide (NSC141540), doxorubicin (NSC123127), gemcitabine (NSC613327), 5-fluorouracil (NSC19893), paclitaxel (NSC125973), vemurafenib (NSC761431), panobinostat (NSC761190), R-306465 (JNJ-16241199; NSC773264), adavosertib (NSC754352), TP-3654 (NSC805149), carboplatin (NSC241240), KSQ-4279 (NSC840948), and staurosporine (NSC755774) were obtained from the National Cancer Institute (NCI) Developmental Therapeutics Program Chemical Repository (34). The FDA-approved anticancer drug set is available from the NCI Developmental Therapeutics Program. […] The stock solutions were prepared in dimethyl sulfoxide (DMSO, Sigma-Aldrich, St. Louis, MO, cat. D2650) at 800-fold the tested concentration and stored at -70 degrees C prior to their use. All drugs and investigational agents were tested over a range starting from a high concentration at or near the clinical Cmax and decreasing in half-log increments. If the clinical Cmax for an agent had not been determined, the highest concentration tested was 10 microM.
2.3 Cell Culture. All cells were maintained in an incubator at 37 degrees C and 5% CO2 with 95% humidity. The PDC lines were cultured according to standard operating procedures established by the NCI PDMR. All PDCs were thawed and cultured in Matrigel-coated flasks prepared with a working solution of 1X Ham's F-12 nutrient mix, without supplementation (Invitrogen, cat. 11765054), 100 U/mL penicillin-streptomycin (Invitrogen, cat. 15140122), and 2.5% Matrigel (Corning Inc., cat. 354248) for the first three passages. The 857933-349-R-J2-PDC line was cultured in 6C/Colon 1B media, which includes advanced DMEM/F-12 (Thermo Fisher Scientific, cat. 12634028), 10 mM HEPES (Thermo Fisher Scientific, cat. 15630080), 1X GlutaMAX supplement (Thermo Fisher Scientific, cat. 35050061), 0.1 mg/mL primocin (InvivoGen, cat. ant-pm-2), 10% defined fetal bovine serum, heat inactivated (HyClone Laboratories Inc., cat. SH30070.03HI), 50% L-WRN conditioned media (ATCC, cat. CRL-3276), 1.25 mM N-Acetyl-L-cysteine (Sigma-Aldrich, cat. A9165), 10 mM nicotinamide (Sigma-Aldrich, cat. N0636), 1X B-27 supplement (Thermo Fisher Scientific, cat. 17504044), 1X N-2 supplement (Thermo Fisher Scientific, cat. 17502048), 10 microM Y-27632 dihydrochloride (Tocris Bioscience, cat. 1254), and 50 ng/mL human EGF recombinant protein (Thermo Fisher Scientific, cat. PHG0311). The 485176-168-R4-J1-PDC line was cultured in Panc media, which includes all 6C/Colon 1B media components plus 100 ng/mL human FGF-10 (Thermo Fisher Scientific, cat. 100-26), 500 nM SB-431542 (Selleckchem, cat. S1067), and gastrin (Tocris, cat. 3006).
[…]

Where “and” joins values, the source holds several entries; their conditions need not be identical. Identical values can stand only once.
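Further: spheroids exposed to compounds for 7 days before readout.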
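Wherever viability, T/C is given: percent of vehicle DMSO control viability with 100% = untreated-like growth.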

On to `C#Cc1c(F)ccc2cc(O)cc(-c3ncc4c(N5CC6CCC(C5)N6)nc(OCC56CCCN5CC(F)C6)nc4c3F)c12` (stereo not given), for which the IC50 is > 10 µM and 2.42 µM. Where the note is “compound 0.0316 µM”, the viability, T/C was 103% and 112% and 90.1%. Further, the viability, T/C (compound 0.1 µM) is 102% and 93.9% and 80.2%. Under “compound 0.316 µM”, the viability, T/C was 110% and 81.1% and 95.1%. Moreover, for the setting “compound 1 µM”, the viability, T/C was 86.2% and 90.6% and 93.1%. Moreover, the viability, T/C (compound 3.16 µM) was 101% and 33.1% and 95.4%. Also, the viability, T/C (compound 10 µM) is 82.8% and 42.6% and 77.7%.
Take `C=CC(=O)N1CCN(c2nc(=O)n(-c3c(C)ccnc3C(C)C)c3nc(-c4c(O)cccc4F)c(F)cc23)C(C)C1` (stereo not given): the 50% inhibitory concentration (IC50) is greater than 10 µM. Further, the viability, T/C (compound 0.0316 µM) was 114% and 108% and 103%. Further, the viability, T/C (compound 0.1 µM) was 92.4% and 90.8% and 92.9%. For the setting “compound 0.316 µM”, the viability, T/C was 104% and 91.5% and 93.6%. Also, the viability, T/C (compound 1 µM) was 91.5% and 93.8% and 96.1%. Also, the viability, T/C (compound 3.16 µM) is 105% and 95.6% and 103%. Also, the viability, T/C (compound 10 µM) was 97.3% and 80.3% and 106%.
As to `CC(=O)O[C@H]1C(=O)[C@@]2(C)[C@H]([C@H](OC(=O)c3ccccc3)[C@]3(O)C[C@H](OC(=O)[C@H](O)[C@@H](NC(=O)c4ccccc4)c4ccccc4)C(C)=C1C3(C)C)[C@]1(OC(C)=O)CO[C@@H]1C[C@@H]2O`, the viability, T/C runs as follows: (compound 0.0316 µM) 114% and 62.1% and 42.4%; (compound 0.1 µM) 98.5% and 13.8% and 13.7%; (compound 0.316 µM) 89% and 15.7% and 17%; (compound 1 µM) 4.35% and 20.7% and 17.9%; (compound 3.16 µM) 0.15% and 21.9% and 16.7%.
Turning to `CC(C)(O)C1CCC(Nc2ccc3ncc(-c4cccc(C(F)(F)F)c4)n3n2)CC1` (stereo not given), the IC50 was > 10 µM and 2.38 µM and 1.59 µM. Moreover, the viability, T/C (compound 0.0316 µM) is 95.4% and 108% and 93.2%. Besides, the viability, T/C (compound 0.1 µM) was 77.4% and 81.7% and 98.5%. Further, the viability, T/C (compound 0.316 µM) was 107% and 80.8% and 81.9%. In addition, for the setting “compound 1 µM”, the viability, T/C was 96.5% and 87.1% and 71.6%. Further, the viability, T/C (compound 3.16 µM) is 101% and 33.2% and 13.8%. Further, the viability, T/C (compound 10 µM) was 95% and 42.3% and 22.1%.
Regarding `CC(C)n1c(=O)n(C)c2cnc3cc(F)c(-c4ccc(OCCCN5CCCCC5)nc4)cc3c21`, the IC50 is greater than 10 µM. Also, the viability, T/C (compound 0.0316 µM) is 104% and 100% and 77.6%. In addition, under “compound 0.1 µM”, the viability, T/C is 107% and 87.5% and 98.7%. Besides, where the note is “compound 0.316 µM”, the viability, T/C was 94.4% and 95.6% and 105%. Moreover, where the note is “compound 1 µM”, the viability, T/C is 94.8% and 106% and 92.8%. Also, where the note is “compound 3.16 µM”, the viability, T/C is 102% and 97.1% and 111%. The viability, T/C (compound 10 µM) is 113% and 80.3% and 102%.
Regarding `CC1COCCN1c1cc(-c2ccnn2C)c2ccnc(-c3ccn[nH]3)c2n1` (stereo not given), the IC50 is 0.696 µM and 0.555 µM and 0.247 µM. Also, the viability, T/C (compound 0.0316 µM) is 76.8% and 96.3% and 95.7%. The viability, T/C (compound 0.1 µM) is 80.2% and 78.9% and 53%. In addition, the viability, T/C (compound 0.316 µM) is 61.4% and 49% and 55.4%. Besides, the viability, T/C (compound 1 µM) was 43.9% and 49.3% and 38.2%. Further, the viability, T/C (compound 3.16 µM) was 29.3% and 33% and 26.9%. The viability, T/C (compound 10 µM) is 20.9% and 28.2% and 23.2%.
For the molecule `CC1COCCN1c1cc(C2(O)CC3CCC(C2)O3)c2cnn(-c3ccn[nH]3)c2n1` (stereo not given), the IC50 was 0.491 µM and 0.478 µM and 0.53 µM. Besides, the viability, T/C (compound 0.0316 µM) was 80.7% and 77.9% and 79.5%. The viability, T/C (compound 0.1 µM) was 70% and 87.8% and 83.6%. The viability, T/C (compound 0.316 µM) is 61.8% and 55.8% and 62.1%. Moreover, the viability, T/C (compound 1 µM) is 33.2% and 34.6% and 34.8%. For the same molecule, the viability, T/C (compound 3.16 µM) was 24.2% and 20.5% and 35.2%. The viability, T/C (compound 10 µM) is 16.9% and 16.5% and 24.2%.
Turning to `CC1COCCN1c1cc(C2(S(C)(=N)=O)CC2)nc(-c2ccnc3[nH]ccc23)n1` (stereo not given), the IC50 was 8.36 µM and > 10 µM. Moreover, for the setting “compound 0.0316 µM”, the viability, T/C is 96.3% and 86.8% and 105%. The viability, T/C (compound 0.1 µM) was 101% and 80.1% and 81.3%. Besides, the viability, T/C (compound 0.316 µM) is 100% and 97.5% and 101%. The viability, T/C (compound 1 µM) was 62.2% and 81.9% and 77.9%. In addition, the viability, T/C (compound 3.16 µM) is 86.1% and 70.7% and 78.6%. Further, for the setting “compound 10 µM”, the viability, T/C is 42.4% and 60.9% and 49.9%.
As for `CCCS(=O)(=O)Nc1ccc(F)c(C(=O)c2c[nH]c3ncc(-c4ccc(Cl)cc4)cc23)c1F`, the IC50 was 1.89 µM and 4.98 µM and 4.34 µM. Besides, the viability, T/C (compound 0.0316 µM) was 117% and 88.2% and 74.2%. Besides, the viability, T/C (compound 0.1 µM) was 76.3% and 55.9% and 63.7%. The viability, T/C (compound 0.316 µM) is 90.1% and 68.8% and 55.6%. Moreover, the viability, T/C (compound 1 µM) was 75.6% and 74.8% and 57.6%. The viability, T/C (compound 3.16 µM) was 29.3% and 72.3% and 66.7%. Moreover, the viability, T/C (compound 10 µM) is 17.7% and 16.4% and 14.4%.
Take `CC[C@@]1(O)C(=O)OCc2c1cc1n(c2=O)Cc2cc3c(CN(C)C)c(O)ccc3nc2-1`: the IC50 was greater than 0.316 µM. In addition, where the note is “compound 0.000999 µM”, the viability, T/C is 98.2% and 99.2% and 107%. For the same molecule, the viability, T/C (compound 0.00316 µM) was 92.4% and 87.1% and 103%. For the same molecule, the viability, T/C (compound 0.00999 µM) was 106% and 101% and 87.3%. Moreover, for the setting “compound 0.0316 µM”, the viability, T/C is 89.3% and 95.4% and 117%. In addition, the viability, T/C (compound 0.0999 µM) was 84% and 109% and 93.1%. Further, the viability, T/C (compound 0.316 µM) is 57.4% and 106% and 60.5%.
`CCc1c2c(nc3ccc(O)cc13)-c1cc3c(c(=O)n1C2)COC(=O)[C@]3(O)CC`: the IC50 was 0.0384 µM and 0.178 µM and 0.0546 µM. Further, where the note is “compound 0.000999 µM”, the viability, T/C was 87.9% and 100% and 111%. Further, the viability, T/C (compound 0.00316 µM) was 81.8% and 80.9% and 91%. Besides, the viability, T/C (compound 0.00999 µM) was 67.7% and 93.2% and 67%. In addition, the viability, T/C (compound 0.0316 µM) was 50.7% and 73% and 63.6%. Besides, the viability, T/C (compound 0.0999 µM) was 40.8% and 61.3% and 40.1%. The viability, T/C (compound 0.316 µM) is 29.2% and 39% and 30.2%.
